Assays:
[1] = biological target: T1, human neuraminidase 3 (NEU3) (Homo sapiens, UniProt Q9UQ49); assay: Time-resolved CUPRA enzyme kinetics, NEU3; format: biochemical
T1 construct: made in house
T1 sequence (Q9UQ49 1-428): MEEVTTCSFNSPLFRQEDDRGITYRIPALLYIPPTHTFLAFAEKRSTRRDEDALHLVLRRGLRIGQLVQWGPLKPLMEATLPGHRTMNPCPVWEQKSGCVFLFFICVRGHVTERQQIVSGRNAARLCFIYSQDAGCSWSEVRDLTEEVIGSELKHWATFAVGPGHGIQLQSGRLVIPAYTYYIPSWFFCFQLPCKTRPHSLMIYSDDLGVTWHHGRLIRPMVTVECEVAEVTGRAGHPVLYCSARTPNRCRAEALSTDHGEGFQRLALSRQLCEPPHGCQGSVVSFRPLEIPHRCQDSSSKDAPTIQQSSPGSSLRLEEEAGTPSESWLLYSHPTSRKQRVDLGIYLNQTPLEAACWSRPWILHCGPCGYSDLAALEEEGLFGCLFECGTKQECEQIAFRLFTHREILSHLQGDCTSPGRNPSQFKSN
Description: To apply CUPRA in this capacity, two or more substrates of interest are introduced, as their corresponding OS^mod, to a solution containing the desired CAZyme. Changes in substrate concentrations, as well as those of the corresponding enzyme products, are determined from the relative abundances of OS^mod-bound ^UniPproxy measured by time-resolved ESI-MS. Because of the manner in which the substrate and product concentrations are measured, the assay is insensitive to differences in their ESI-MS response factors and, consequently, independent of the nature of the chemical modification catalyzed by the enzyme. As a result, time-resolved CUPRA eliminates the need for calibration curves or internal standards, which are generally required with ESI-MS-based enzyme kinetics assays.
Two glycosyl hydrolases, human neuraminidase 2 (NEU2) and 3 (NEU3), which preferentially cleave α2-3-linked Neu5Ac residues, were used to illustrate the ease with which time-resolved CUPRA can establish substrate specificities. We incubated libraries of the Neu5Ac-containing OS^mod with NEU2 (Fig. 2d) or NEU3 (Fig. 2e) and monitored their conversion to the corresponding desialylated OS^mod products at pH 7 and 25 °C. […] All OS^mod containing terminal α2-3-linked Neu5Ac were substrates of NEU3, with initial rates that are 10–50% that of HMO03. […]

[2] = tested on: Maackia amurensis lectins (MAA); assay: CUPRA library screening and affinity, MAA; format: binding; conditions: 50uM MAA; mean of 4 DIi values, FigS3c
Description: Unless otherwise noted, the measurements were performed at 25 °C. […] We identified specific ligands from the depletion index (DIi, Eq. 1) – the change in the fractional abundance (Fi, Eq. 2) ratio of ligand i-bound and free ^UniPproxy ions upon addition of GBP. Prior to calculating Fi, we treated each mass spectrum with the Sliding Window Adducts Removal Method (SWARM)[18] to remove contributions to the abundance of ^UniPproxy -OS^mod complex ions from adducts, formed by the ESI process, of neighbouring complex ions (Supplementary Fig. 2). Shown in Fig. 2a is a summary of the DIi measured by CUPRA screening of the 66-component library against S4 (50 μM). As expected, the average DIi for this negative control is close to 1.0 (0.99 ± 0.03). In contrast, CUPRA screening against the positive controls produced decreases in DIi for one or more of the library components. […] Application of CUPRA to human CD22, part of an important class of Neu5Ac-binding GBPs implicated in both innate and adaptive immunity, correctly identified HMO08 as a ligand (Supplementary Fig. 4a). CUPRA screening of MAA at high concentration (50 μM) identified HMO03 and GA06 as ligands. […]
Using SWARM-treated mass spectra, DIi was calculated for each ligand from the ratio of the fractional abundances (Fi) of ligand (i)-bound and free ^UniPproxy ions in the presence (+GBP) and absence (-GBP) of GBP, Eqs. […]

[3] = biological target: human carbonic anhydrase type 1 (Homo sapiens, UniProt P00915); assay: Direct ESI-MS affinity of OSmod for the universal proxy protein (UniPproxy); conditions: read-out: Kd of OSmod for UniPproxy; direct ESI-MS, 200 mM aqueous ammonium acetate, pH 7, 25 °C
human carbonic anhydrase type 1, sequence (P00915 whole entry): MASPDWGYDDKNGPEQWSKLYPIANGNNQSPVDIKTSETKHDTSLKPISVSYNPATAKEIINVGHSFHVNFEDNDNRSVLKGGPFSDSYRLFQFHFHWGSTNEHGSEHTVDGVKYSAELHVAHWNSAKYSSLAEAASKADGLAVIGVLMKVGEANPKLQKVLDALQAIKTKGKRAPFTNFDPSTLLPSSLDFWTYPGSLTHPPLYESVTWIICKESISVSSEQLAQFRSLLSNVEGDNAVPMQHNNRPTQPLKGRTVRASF

CC(=O)N[C@H]1[C@H](O[C@@H]2[C@H](O[C@]3(C(=O)O)C[C@H](O)[C@@H](NC(C)=O)[C@H]([C@H](O)[C@@H](CO)O[C@]4(C(=O)O)C[C@H](O)[C@@H](NC(C)=O)[C@H]([C@H](O)[C@H](O)CO)O4)O3)[C@@H](O)[C@H](O[C@H]3[C@H](O)[C@@H](O)[C@H](N(CCOCCOCCNC(=O)[C@H](Cc4ccccc4)NC(=O)[C@H](Cc4ccccc4)NC(=O)CCCC(=O)NCCc4ccc(S(N)(=O)=O)cc4)C(C)=O)O[C@@H]3CO)O[C@@H]2CO)O[C@H](CO)[C@H](O)[C@@H]1O [GA10, GalNAcβ1-4(Neu5Acα2-8 Neu5Acα2-3)Galβ1-4Glc-CL]
substrate specificity of NEU3 ([1]; pH 7, 25 °C): substrates for NEU3
Relative activity NEU3 ([1]; time-resolved CUPRA, 200 mM aqueous ammonium acetate pH 7, 25 °C, relative to HMO03): 0.292
average DI [2]: 1.024
Kd [3]: 14.1 ± 1.9 µM

Reference: paper PMC6646405, “A quantitative, high-throughput method identifies protein–glycan interactions via mass spectrometry” (Communications Biology, 2019)
